Broadly, the IC50 is the point on the concentration scale where inhibition reaches its midpoint. Broadly, the AC50 is the midpoint of the concentration-response curve, whichever way the signal moves.

From ChEMBL document CHEMBL1201862, “PubChem BioAssay data set” (2004) come the findings set out here.

Molecules are shown by their SMILES. Activity calls are given as the source filed them.

The target in one experiment is Major prion protein (Homo sapiens, UniProt P04156). The experiment is classed as functional, cell-based.
A short description of experiment [1]: cells.
Experiment [2] in a line: Counterscreen for activators of the function of SWI/SNF related, matrix associated, actin dependent regulator of chromatin, subfamily a, member 2 (SMARCA2, BRM): Luminescence-based cell-based high throughput dose response assay to identify non-selective compounds using the VP16 reporter assay. The experiment is classed as functional. (Counterscreens check selectivity or assay interference.)

The target in experiment [3] is T1, Long-chain-fatty-acid--AMP ligase FadD28 (Mycobacterium tuberculosis, UniProt P9WQ59).
T1 sequence (P9WQ59 whole entry): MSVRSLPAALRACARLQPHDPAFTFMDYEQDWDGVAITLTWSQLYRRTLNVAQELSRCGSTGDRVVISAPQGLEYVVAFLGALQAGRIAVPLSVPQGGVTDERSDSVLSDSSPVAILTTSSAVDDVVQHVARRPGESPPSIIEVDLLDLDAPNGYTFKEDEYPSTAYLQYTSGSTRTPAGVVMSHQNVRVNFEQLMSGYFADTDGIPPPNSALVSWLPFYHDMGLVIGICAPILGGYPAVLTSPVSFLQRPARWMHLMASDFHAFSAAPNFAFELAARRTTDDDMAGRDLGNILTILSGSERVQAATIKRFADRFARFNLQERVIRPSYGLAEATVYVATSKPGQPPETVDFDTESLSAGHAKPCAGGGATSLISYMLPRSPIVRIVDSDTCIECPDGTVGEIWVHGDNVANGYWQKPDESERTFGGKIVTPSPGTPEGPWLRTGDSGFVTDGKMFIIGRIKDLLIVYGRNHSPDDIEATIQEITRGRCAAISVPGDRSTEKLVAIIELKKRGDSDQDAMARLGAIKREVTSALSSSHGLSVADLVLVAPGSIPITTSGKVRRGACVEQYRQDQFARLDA
Description: Fluorescence polarization aasay to screen for inhibitors that compete for the binding of FadD28 to a bisubstrate Measured in Biochemical System Using Plate Reader - 2147-01_Inhibitor_Dose_CherryPick_Activity. The experiment is classed as functional, Mycobacterium tuberculosis H37Rv. In general terms: Fluorescence polarisation rises when a labelled molecule tumbles more slowly, as on binding a larger partner.

Experiment [4] is described as follows: cells. The experiment is classed as functional, cell-based.
The target of experiment [5] is SWI/SNF-related matrix-associated actin-dependent regulator of chromatin subfamily A member 2 (Homo sapiens, UniProt P51531). Description: Luminescence-based cell-based high throughput dose response assay to identify activators of the function of SWI/SNF related, matrix associated, actin dependent regulator of chromatin, subfamily a, member 2 (SMARCA2, BRM). The experiment is classed as functional.

The subject of another experiment is HeLa. Description: HeLa cell cytotoxicity, dose response, cytotoxicity control for MITF activator project, CellTiter-Glo luminescence, cherry-pick samples (AID 540259). Conditions: Homo sapiens. The experiment is classed as functional, cell-based. For orientation: In ATP-based viability assays light output follows the ATP content of the culture.
Experiment [6] addresses T2, Nuclear receptor subfamily 0 group B member 1 (Homo sapiens, UniProt P51843).
T2 sequence (P51843 whole entry): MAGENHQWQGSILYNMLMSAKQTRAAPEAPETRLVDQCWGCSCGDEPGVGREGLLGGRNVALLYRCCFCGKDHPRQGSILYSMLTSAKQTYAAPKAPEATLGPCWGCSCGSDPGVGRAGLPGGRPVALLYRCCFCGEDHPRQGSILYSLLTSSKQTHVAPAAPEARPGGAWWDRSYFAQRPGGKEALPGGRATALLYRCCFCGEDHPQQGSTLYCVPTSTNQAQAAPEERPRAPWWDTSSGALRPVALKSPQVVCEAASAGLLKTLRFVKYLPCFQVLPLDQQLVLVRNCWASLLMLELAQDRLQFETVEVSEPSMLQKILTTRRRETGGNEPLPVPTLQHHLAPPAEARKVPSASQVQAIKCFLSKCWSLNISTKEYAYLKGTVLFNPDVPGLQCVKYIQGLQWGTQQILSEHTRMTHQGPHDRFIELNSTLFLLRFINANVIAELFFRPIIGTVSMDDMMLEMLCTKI
The experiment is classed as functional, cell-based.

The next experiment relates to Vero. Nature of the experiment: Vero cell toxicity, dose response, cytotoxicity control, plate reader, cherry-pick samples (AID 687020). The experiment is classed as functional, cell-based. Conditions: Chlorocebus sabaeus.
Experiment [7] concerns the target T3, Botulinum neurotoxin type F (Clostridium botulinum, UniProt P30996). Nature of the experiment: High-throughput multiplex microsphere dose response for inhibitors of toxin protease, specifically Botulinum neurotoxin light chain F protease, compounds from Cherry Pick 01. Conditions: read-out: EC50_MICROM. The experiment is classed as functional.
Experiment [8] addresses T3, Botulinum neurotoxin type F. Nature of the experiment: High-throughput multiplex microsphere dose response for inhibitors of toxin protease, specifically Botulinum neurotoxin light chain F protease, compounds from Cherry Pick 02. The experiment is classed as functional. The conditions noted are these: read-out: EC50_MICROM.
In experiment [9] the target is T4, Sentrin-specific protease 8 (Homo sapiens, UniProt Q96LD8).
T4 sequence (Q96LD8 whole entry): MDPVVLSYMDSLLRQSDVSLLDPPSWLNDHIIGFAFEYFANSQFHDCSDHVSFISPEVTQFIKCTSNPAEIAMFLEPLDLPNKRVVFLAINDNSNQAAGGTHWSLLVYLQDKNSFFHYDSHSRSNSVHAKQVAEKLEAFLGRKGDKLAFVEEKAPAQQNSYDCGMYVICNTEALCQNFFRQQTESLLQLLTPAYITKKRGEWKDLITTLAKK
The experiment is classed as functional.

A further experiment has as its target T5, Caspase-3 (Homo sapiens, UniProt P42574).
T5 sequence (P42574 whole entry): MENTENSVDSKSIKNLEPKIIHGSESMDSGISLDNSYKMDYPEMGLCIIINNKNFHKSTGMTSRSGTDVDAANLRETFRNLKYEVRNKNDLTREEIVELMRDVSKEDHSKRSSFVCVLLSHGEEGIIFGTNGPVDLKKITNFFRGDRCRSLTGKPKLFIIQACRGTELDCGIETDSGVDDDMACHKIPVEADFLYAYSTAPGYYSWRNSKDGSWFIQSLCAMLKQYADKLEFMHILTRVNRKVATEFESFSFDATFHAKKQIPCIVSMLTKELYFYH
Description: Dose-response confirmation of uHTS inhibitor hits of Sentrin-Specific Protease 8 in a Caspase-3 Fluorescence assay. The experiment is classed as functional.

Experiment [10] has as its target T4, Sentrin-specific protease 8. The experiment is classed as functional. The source holds these as a separate data set.
The target in a further experiment is T6, Coagulation factor XII (Homo sapiens, UniProt P00748).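 Note: activated factor XIIa alpha cleaving a fluorogenic AMC peptide substrate; inhibitor potency from loss of enzyme activity.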
T6 sequence (P00748 whole entry): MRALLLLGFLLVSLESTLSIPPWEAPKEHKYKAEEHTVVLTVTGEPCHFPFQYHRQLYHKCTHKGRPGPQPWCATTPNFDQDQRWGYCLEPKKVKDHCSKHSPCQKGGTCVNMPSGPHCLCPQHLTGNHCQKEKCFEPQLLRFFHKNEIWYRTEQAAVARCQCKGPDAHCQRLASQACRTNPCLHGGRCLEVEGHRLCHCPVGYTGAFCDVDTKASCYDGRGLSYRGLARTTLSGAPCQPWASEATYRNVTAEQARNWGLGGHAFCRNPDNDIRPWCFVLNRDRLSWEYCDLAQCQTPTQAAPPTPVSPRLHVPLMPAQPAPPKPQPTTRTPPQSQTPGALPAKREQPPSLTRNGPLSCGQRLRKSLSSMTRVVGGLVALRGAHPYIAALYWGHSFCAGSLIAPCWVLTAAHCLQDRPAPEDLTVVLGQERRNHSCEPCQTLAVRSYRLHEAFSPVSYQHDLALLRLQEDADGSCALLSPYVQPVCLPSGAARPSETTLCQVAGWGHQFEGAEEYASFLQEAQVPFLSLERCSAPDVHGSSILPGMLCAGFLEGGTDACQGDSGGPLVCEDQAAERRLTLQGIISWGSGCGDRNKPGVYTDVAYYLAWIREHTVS
The experiment is classed as functional.

The nature of experiment [11]: ADAM10 protease inhibitors, dose response, selectivity assay for ADAM17 exosite inhibitor project, biochemical, FRET peptide substrate, recombinant human ADAM10 (AID 743259).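 Note: ADAM10 enzyme cleaving a FRET peptide substrate.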
Experiment [12] addresses Disintegrin and metalloproteinase domain-containing protein 17 (Homo sapiens, UniProt P78536). Description: exosite inhibitors of ADAM17, dose response, biochemical (AID 743260).
A short description of experiment [13]: LGR2 antagonists, dose response, cell-based, HEK293, CRE-luciferase reporter, cherry pick, set 2 (AID 743343).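 Note: transfected cells were stimulated with diluted bursicon conditioned medium after compound addition.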 The experiment is classed as functional.
The nature of experiment [14]: MC4R antagonists, dose response, counter-screen for LGR2 antagonist project, cell-based, plate reader, cherry pick (AID 743444).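 Note: transfected HEK 293 cells stimulated with alpha-MSH peptide; potency of inhibitors of the alpha-MSH evoked signal.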 The experiment is classed as functional.
Experiment [15] can be described thus: HepG2 cell cytotoxicity, dose response, cytotoxicity control, plate reader, cherry-pick, antagonist series (AID 743416). The experiment is classed as functional, cell-based.
Experiment [16] is described as follows: A549 cell cytotoxicity, dose response, cytotoxicity control, plate reader, cherry-pick, antagonist series (AID 743412). The experiment is classed as functional, cell-based.
The nature of experiment [17]: HEK293 cell cytotoxicity, dose response, cytotoxicity control, plate reader, cherry-picked samples (AID 743446). The experiment is classed as functional, cell-based.
A short description of experiment [18]: IGROV1 ovarian cancer cell cytotoxicity, dose response, PAX8 inhibitor project, plate reader, dry powder samples (AID 743043). The experiment is classed as functional, cell-based. The conditions noted are these: IGROV-1.
Experiment [19] in a line: cytotoxicity in OVCAR8 ovarian cancer cells, dose response, PAX8 project, cell-based, plate reader, dry powder samples (AID 743197). The conditions noted are these: OVCAR-8. The experiment is classed as functional.
A further experiment concerns the target Paired box protein Pax-8 (Homo sapiens, UniProt Q06710). Description: inhibitors of PAX8-driven TPO luciferase reporter, dose response, RMG-I cells, cherry-pick (AID 687027).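 Note: luciferase reporter driven by Pax8 target thyroperoxidase promoter measured by SteadyGlo luminescence.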 The experiment is classed as functional, cell-based.
Experiment [20] in a line: NIH:OVCAR-3 ovarian cancer cell cytotoxicity, dose response, PAX8 inhibitor project, plate reader, dry powder samples (AID 743044). The experiment is classed as functional, cell-based.

As for `Cc1onc(-c2c(F)cccc2Cl)c1C(=O)Nc1nnc(C(F)(F)F)s1`, the IC50 at Major prion protein is 2.79 µM (active); in the experiment “cells [1]” it was > 138 µM (inactive).

`CCc1cccc2c(C(=O)CN3C(=O)NC4(CCCCCC4)C3=O)c[nH]c12`: the EC50 in experiment [2] and in [5] was > 91.2 µM (inactive) each time. The concentration at half-maximal activity (AC50) in experiment [3] was 4.33 µM (active); in the experiment with HeLa, 99.7 µM (active). The IC50 (in “cells [4]”; in [6]) was > 67.6 µM (inactive) in each case.

In the case of `Cc1cccc(N(C(=O)Cn2nnc3ccccc32)C(C(=O)NC(C)(C)C)c2ccsc2)c1` (stereo unspecified), the AC50 with Vero is 31.3 µM (active).

On to `O=C(Nc1cnc(O)nc1O)c1cc([N+](=O)[O-])cc([N+](=O)[O-])c1`, for which the EC50 in [7] was 3.9 µM (active); in experiment [8], 2.7 µM (active).

On to `COc1ccc(N2C(=O)[C@@H]3[C@H](C2=O)[C@H]2c4ccccc4C=CN2[C@@H]3C(=O)Nc2ccccc2)cc1`, for which the IC50 is 16.7 µM (active) in experiment [9], 12.4 µM (active) at Caspase-3, 3.72 µM (active) in experiment [10] and > 50 µM (inactive) at Coagulation factor XII.

In the case of `C[C@H](CO)N1C[C@H](C)[C@H](CN(C)S(=O)(=O)c2cccs2)Oc2ccc(NC(=O)Nc3ccc4c(c3)OCO4)cc2CC1=O`, the IC50 in experiment [11] is 13.8 µM (inactive); in experiment [12], > 69.5 µM (inactive).

As for `CCN1CCN(Cc2ccc(NC(=O)c3cccc(-c4ccc5nc(NC(=O)C6CC6)sc5n4)c3)cc2C(F)(F)F)CC1`, the AC50 in experiment [13] was 5.27 µM (active); in [14] it was 2.18 µM (active); in [15], 3.22 µM (active); in [16], 5.08 µM (active); in experiment [17] it was 8.7 µM (active).

With `C[C@@H]1CN([C@@H](C)CO)C(=O)Cc2cc(NS(=O)(=O)c3ccc(Cl)cc3)ccc2O[C@H]1CN(C)Cc1ccc(Oc2ccccc2)cc1`, the AC50 was 25.9 µM (active) in [18], 26.7 µM (active) in experiment [19], 6.27 µM (active) at Paired box protein Pax-8 and 22.5 µM (active) in experiment [20].
